The numbers were not newly measured in patent US20050112339A1, “Antimicrobial protection for plastic structures” (priority 2003, published 2005), which cites them from elsewhere.

For this series the following is noted: in water.

For `On1ccccc1=S.On1ccccc1=S.[Cu]` [copper pyrithione], the water solubility was 0.1 milligrams per liter. Regarding `[Na+].[O-][n+]1ccccc1[S-]` [sodium pyrithione], the water solubility is listed as 450 grams per liter. In the case of zinc pyrithione, the water solubility is reported as 6 milligrams per liter.
